Structures are written as SMILES. ± gives the expanded uncertainty stated by the source.

The conditions of one data set: 298.15 K; 101.33 kPa; Crystal.
Consider `c1ccc2[nH]ccc2c1` [1H-indole], for which the mass density stood at 1216.68 ± 1.9 kg/m3.

The data set is the same for the next values; noted with them: 298.15 K; 101.33 kPa; Liquid.
On to `CCCCCCCCCCCCCCCC` [hexadecane], for which the mass density was 773.19 ± 0.32 kg/m3.
As for `c1ccc2ncccc2c1` [quinoline], the mass density came out at 1089.45 ± 0.31 kg/m3.
As for `Nc1ccccc1` [aniline], the mass density is listed as 1017.42 ± 0.2 kg/m3.
Turning to `c1ccncc1` [pyridine], the mass density amounted to 978.25 ± 0.27 kg/m3.
On to `c1cc[nH]c1` [pyrrole], for which the mass density worked out at 965.9 ± 2.9 kg/m3.

In general, mass density refers to mass per unit of volume.
